Measurements taken from EP4813979A1, “COMPOUND FOR EGFR PROTEIN DEGRADATION AND USE THEREOF” (TYK Medicines, Inc., priority 2023, dated 2025).

How the values were obtained:
Test in all cases: Cell anti-proliferation experiment (CTG)
Format in all cases: cell-based
H1975 = details: Homo sapiens, NCI-H1975, 72 h, H1975 (EGFR T790M/L858R), class symbol
Description: (§1) H1975 has an EGFR: T790M/L858R double mutation, PC-9 has an EGFR exon 19 deletion, and HCC827 has an exon 19 deletion mutation. Baf3-19del- T790M -C797S (Baf3-DTC) is a stable Ba/F3 clone expressing exogenous EGFR gene bearing T790M, C797S, and […] triple amino acid mutations, purchased from KYinno. Baf3-L858R-T790M - C797S (Baf3-LTC) is a stable Ba/F3 clone expressing exogenous EGFR gene bearing […], T790M, and C797S triple mutations, purchased from KYinno. A549 is a wild-type EGFR, purchased from Nanjing Kebai Biotechnology. A431 is a wild-type EGFR, purchased from Shanghai Xinyu Biotechnology. CellCounting-Lite2.0, Trypsin EDTA, 37°C CO2 incubator, cell counter, EnVision Serial No. 1050454.
(§2) • A) Digested logarithmic phase cells with Trypsin EDTA, added culture medium to stop the reaction, and mixing well with a pipette to prepare a cell suspension. • B) Used Vi-cell to determine cell concentration, and prepared a suspension of 15,000-25,000 cells per milliliter according to the experimental purpose and cell characteristics. • C) After prepared the cell suspension, mixed it gently and added 100 µL to each well, so that the cell density to be tested is 1500-2500 per well.
(§3) • A) Weighed approximately 2 mg the compound and calculated the required volume of DMSO according to the formula: Compound mass (mg) * Compound purity (%) / Compound molecular weight * 1000. • B) Placed the inoculated cell culture plate into an incubator and incubated for about 24 hours. Then added compounds of varying concentrations. • C) Diluted the 10mM compound stock solution to […] with culture medium, and added the […] compound solution to the second column of the deep well plate in sequence, and added […] culture medium containing 0.5% DMSO to the third to eleventh columns. • D) Gradient dilution: Taked 125 µL solution from the second column and added it to the third column, mix well; then taked 125 µL solution from the third column and added it to the fourth column, repeated this operation until the tenth column. • E) Used a multichannel pipette, aspirated 25 µL the compound from the deep-well plate and added it to a 96-well culture plate. Repeated this process three times for each compound on the 96-well plate. This will ultimately create a concentration gradient of up to 10,000 nM at a 1:4 ratio on the 96-well plate.
(§4) • A) The effects of the compound were observed under an inverted microscope after the 96-well plate was incubated in an incubator for 72 hours. • B) Added 25 µL CTG solution to each well, placed on a shaker for 10 minutes, and read the […] of each well.
(§5) Calculate the % Cell Viability using the following formula: %Cell Viability = 100% × (Lum_Sample−Lum_LC)/(Lum_HC−Lum_LC) [formula] • Lum_HC: Cell readings from the 0.1% DMSO control group • Lum_Sample: Cell readings with added compound • Lum_LC: Blank culture medium reading
(§6) The IC50 value was obtained by curve fitting using GraphPad Prism 8 software.

A549 = details: Homo sapiens, A549, 72 h, A549 (wild-type EGFR), class symbol
Description: as §1, §2, §3, §4, §5, §6

[1] = tested on: Baf3-19del- T790M -C797S (Baf3-DTC); details: 72 h, class symbol
Description: as §1, §2, §3, §4, §5, §6

[2] = tested on: Baf3-L858R-T790M - C797S (Baf3-LTC); details: 72 h, class symbol
Description: as §1, §2, §3, §4, §5, §6

PC-9 = details: Homo sapiens, PC-9, 72 h, PC-9 (EGFR exon 19 deletion), class symbol
Description: as §1, §2, §3, §4, §5, §6

HCC827 = details: Homo sapiens, HCC827, 72 h, HCC827 (exon 19 deletion), class symbol
Description: as §1, §2, §3, §4, §5, §6

A431 = details: Homo sapiens, A-431, 72 h, A431 (wild-type EGFR), class symbol
Description: as §1, §2, §3, §4, §5, §6

SMILES | IC50 (H1975) | IC50 (A549) | IC50 [1] | IC50 [2] | IC50 (PC-9) | IC50 (HCC827) | IC50 (A431)
CCc1cc(Nc2ncc(Cl)c(Nc3ccccc3P(C)(C)=O)n2)c(OC)cc1N1CCC2(CCN(C(=O)CN3CCC(c4cc5c(cc4F)c(N4CCC(=O)NC4=O)nn5C)C(F)(F)C3)CC2)C1 (centres unmarked) [TC-111] | 100 to 1000 nM | 100 to 1000 nM | 10 to 100 nM | 10 to 100 nM | 100 to 1000 nM | 100 to 1000 nM | > 1000 nM
CCc1cc(Nc2ncc(Cl)c(Nc3ccccc3P(C)(C)=O)n2)c(OC)nc1N1CCN(C(=O)CN2CCC(c3cc4c(cc3F)c(N3CCC(=O)NC3=O)nn4C)C(F)(F)C2)CC1 (centres unmarked) [TC-115] | 100 to 1000 nM | 100 to 1000 nM | 10 to 100 nM | 10 to 100 nM | 100 to 1000 nM | 100 to 1000 nM | > 1000 nM
COc1nc(N2CCN(C(=O)CN3CCC(c4cc5c(cc4F)c(N4CCC(=O)NC4=O)nn5C)C(F)(F)C3)CC2)ccc1Nc1ncc(Cl)c(Nc2ccccc2P(C)(C)=O)n1 (centres unmarked) [TC-125] | 100 to 1000 nM | 100 to 1000 nM | 100 to 1000 nM | 10 to 100 nM | 100 to 1000 nM | 100 to 1000 nM | 100 to 1000 nM
CCc1cc(Nc2ncc(Cl)c(Nc3ccccc3P(C)(C)=O)n2)c(OCC(F)(F)F)nc1N1CCN(C(=O)CN2CCC(c3cc4c(cc3F)c(N3CCC(=O)NC3=O)nn4C)C(F)(F)C2)CC1 (centres unmarked) [TC-127] | 100 to 1000 nM | > 1000 nM | 10 to 100 nM | 10 to 100 nM | > 1000 nM | 100 to 1000 nM | > 1000 nM
CCc1cc(Nc2ncc(Cl)c(Nc3ccccc3P(C)(C)=O)n2)c2c(c1N1CCN(C(=O)CN3CCC(c4cc5c(cc4F)c(N4CCC(=O)NC4=O)nn5C)C(F)(F)C3)CC1)CCO2 (centres unmarked) [TC-135] | 10 to 100 nM | > 1000 nM | < 10 nM | < 10 nM | > 1000 nM | 100 to 1000 nM | > 1000 nM
COc1cc(N2CCN(C(=O)CN3CCC(c4cc5c(cc4F)c(N4CCC(=O)NC4=O)nn5C)C(F)(F)C3)CC2)c(Cl)cc1Nc1ncc(Br)c(Nc2ccccc2P(C)(C)=O)n1 (centres unmarked) [TC-138] | 10 to 100 nM | > 1000 nM | < 10 nM | < 10 nM | 100 to 1000 nM | 100 to 1000 nM | > 1000 nM
CCc1cc(Nc2ncc(Br)c(Nc3ccccc3P(C)(C)=O)n2)c(OC)cc1N1CCN(C(=O)CN2CCC(c3cc4c(cc3F)c(N3CCC(=O)NC3=O)nn4-c3ccccc3)C(F)(F)C2)CC1 (centres unmarked) [TC-150] | 100 to 1000 nM | > 1000 nM | 10 to 100 nM | 10 to 100 nM | > 1000 nM | 100 to 1000 nM | > 1000 nM
COc1cc(N2CCN(C(=O)CN3CCC(c4cc5c(cc4F)c(N4CCC(=O)NC4=O)nn5C)C(F)(F)C3)CC2)ccc1Nc1ncc(Cl)c(Nc2ccccc2P(C)(C)=O)n1 (centres unmarked) [TC-211] | 100 to 1000 nM | > 1000 nM | 10 to 100 nM | 10 to 100 nM | 100 to 1000 nM | 100 to 1000 nM | > 1000 nM
